Source: US10875855B2 (priority 2011, dated 2020)
Where two headings read alike, the source gives them in different places.

Tests used:
[1] = tested on: influenza A virus (A/PR/8/34); test: MDCK cytopathic effect (CPE) cell protection assay, ATP detection; format: cell-based
[2] = tested on: influenza A virus (A/PR/8/34); test: microbe, parasite or virus in culture; format: cell-based
influenza virus = test: Influenza therapeutic mouse model (in vivo efficacy); design: species or system Balb/c mice; settings: dosing @ 48 hours post infection, 30 mg/kg BID × 10 days; for Percent Survival / Percent Weight Loss (Day 8): Balb/c mice; for Percent Survival: scored 21 days; for Percent Weight Loss (Day 8): post challenge day 8; for WBP (Penh; Day 6): whole body plethysmography, enhanced pause
[3] = Influenza A virus, PR/8, MDCK, 72 h, Table 1, MDCK cells, A/PR/8/34, 72 hours, 50% cell protection, mean all, class symbol, read-out: MDCK IC50
[4] = Influenza A virus, PR/8, MDCK, exemplary data, MDCK cell protection, read-out: IC50
[5] = Influenza A virus, PR/8, Table 1, mean all, class symbol, read-out: bDNA EC99
[6] = Influenza A virus, PR/8, Table 1, viral RNA 50% of control wells, mean all, class symbol, read-out: bDNA EC50
[7] = Influenza A virus, PR/8, exemplary data, bDNA, read-out: EC50

## CC(C)(C)[C@@H](CC(=O)O)Nc1nc(-c2c[nH]c3ncc(Cl)cc23)ncc1F [Compound 1, (R)-3-(2-(5-Chloro-1H-pyrrolo[2,3-b]pyridin-3-yl)-5-fluoropyrimidin-4-ylamino)-4,4-dimethylpentanoic acid]
[1]; [3]
  IC50: < 0.3 µM
[1]; [4]
  IC50: 0.006 µM
[2]; [5]
  EC99: < 0.3 µM
[2]; [6]
  EC50: < 0.3 µM
[2]; [7]
  EC50: 0.009 µM
[2]; exemplary data, bDNA
  EC99: 0.0094 µM
Influenza virus
  Percent Survival: 100%
  Percent Weight Loss (Day 8): 26.6%
  WBP (Penh; Day 6): 1.88

## C[C@@H](CC(=O)O)Nc1nc(-c2c[nH]c3ncc(Cl)cc23)ncc1F [Compound C4, reference compound]
[1]; Influenza A virus, PR/8, MDCK, Table 2, class symbol in brackets, read-out: MDCK cell IC50 (uM), class
  IC50: 0.3 to 3.3 µM
[1]; Influenza A virus, PR/8, MDCK, Table 2, comparison compounds of WO2005/095400, mean value, read-out: MDCK cell IC50
  IC50: 2.33 µM
[2]; Influenza A virus, PR/8, Table 2, class symbol in brackets, read-out: bDNA EC50 (uM), class
  EC50: > 3.3 µM
[2]; Influenza A virus, PR/8, Table 2, comparison compounds of WO2005/095400, mean value, read-out: bDNA EC50
  EC50: 6.4 µM
[2]; Table 2, class symbol in brackets
  bDNA EC99 (uM), class: C (EC99 (mean all)>3.3 μM)
[2]; Table 2, comparison compounds of WO2005/095400, mean value
  bDNA EC99: > 16.7 µM

## CC(C)(C)[C@@H](CCC(=O)O)Nc1nc(-c2c[nH]c3ncc(F)cc23)ncc1F [Compound 20, (R)-4-((5-fluoro-2-(5-fluoro-1H-pyrrolo[2,3-b]pyridin-3-yl)pyrimidin-4-yl)amino)-5,5-dimethylhexanoic acid]
[1]; [3]
  IC50: < 0.3 µM
[2]; [5]
  EC99: < 0.3 µM
[2]; [6]
  EC50: < 0.3 µM

## CC1([C@@H](CC(=O)O)Nc2nc(-c3c[nH]c4ncc(F)cc34)c(C#N)cc2F)CCCC1 [Compound 42, (R)-3-(5-cyano-3-fluoro-6-(5-fluoro-1H-pyrrolo[2,3-b]pyridin-3-yl)pyridin-2-ylamino)-3-(1-methylcyclopentyl)propanoic acid]
[1]; [3]
  IC50: < 0.3 µM
[2]; [5]
  EC99: < 0.3 µM
[2]; [6]
  EC50: < 0.3 µM

## CC(C)(C)[C@@H](CS(C)(=O)=O)Nc1nc(-c2c[nH]c3ncc(F)cc23)ncc1F [Compound 46, (S)—N-(3,3-dimethyl-1-(methylsulfonyl)butan-2-yl)-5-fluoro-2-(5-fluoro-1H-pyrrolo[2,3-b]pyridin-3-yl)pyrimidin-4-amine]
[1]; [3]
  IC50: < 0.3 µM
[2]; [5]
  EC99: > 3.3 µM
[2]; [6]
  EC50: 0.3 to 3.3 µM

## CC1([C@H](CC(=O)O)Nc2nc(-c3c[nH]c4ncc(F)cc34)ncc2F)CCCC1 [Compound 15]
[1]; [3]
  IC50: 0.3 to 3.3 µM
[2]; [5]
  EC99: > 3.3 µM
[2]; [6]
  EC50: 0.3 to 3.3 µM

## CCC(C)(C)C(CC(=O)O)Nc1nc(-c2c[nH]c3ncc(F)cc23)c(C#N)cc1F (stereo not drawn) [Compound 18, 3-[[5-cyano-3-fluoro-6-(5-fluoro-1H-pyrrolo[2,3-b]pyridin-3-yl)-2-pyridyl]amino]-4,4-dimethyl-hexanoic acid]
[1]; [3]
  IC50: < 0.3 µM
[2]; [5]
  EC99: < 0.3 µM
[2]; [6]
  EC50: < 0.3 µM

## CC1(C(CC(=O)O)Nc2nc(-c3c[nH]c4ncc(F)cc34)ncc2F)CCC1 (stereo not drawn) [Compound 88, 3-((5-fluoro-2-(5-fluoro-1H-pyrrolo[2,3-b]pyridin-3-yl)pyrimidin-4-yl)amino)-3-(1-methylcyclobutyl)propanoic acid]
[1]; Table 1, MDCK cells, A/PR/8/34, 72 hours, 50% cell protection, mean all, class symbol, read-out: MDCK IC50
  IC50: < 0.3 µM
[2]; Table 1, mean all, class symbol
  bDNA EC99 (uM): B (0.3 μM≤EC99 (mean all)≤3.3 μM)
[2]; Table 1, viral RNA 50% of control wells, mean all, class symbol, read-out: bDNA EC50
  EC50: < 0.3 µM

## CC(C)(C)C(Nc1nc(-c2c[nH]c3ncc(F)cc23)ncc1F)C1CC1C(=O)O (stereo not drawn) [Compound 50, 2-(1-((5-fluoro-2-(5-fluoro-1H-pyrrolo[2,3-b]pyridin-3-yl)pyrimidin-4-yl)amino)-2,2-dimethylpropyl)cyclopropanecarboxylic acid]
[1]; [3]
  IC50: < 0.3 µM
[2]; [5]
  EC99: 0.3 to 3.3 µM
[2]; [6]
  EC50: < 0.3 µM

## Cc1cnc2[nH]cc(-c3ncc(F)c(N[C@H](CC(=O)O)C(C)(C)C)n3)c2c1 [Compound 90, (R)-3-((5-fluoro-2-(5-methyl-1H-pyrrolo[2,3-b]pyridin-3-yl)pyrimidin-4-yl)amino)-4,4-dimethylpentanoic acid]
[1]; [3]
  IC50: < 0.3 µM
[2]; [5]
  EC99: 0.3 to 3.3 µM
[2]; [6]
  EC50: < 0.3 µM

## CC(C)(C)[C@@H](CC(=O)O)Nc1nc(-c2n[nH]c3ncc(F)cc23)ncc1F [Compound 5, (R)-3-((5-fluoro-2-(5-fluoro-1H-pyrazolo[3,4-b]pyridin-3-yl)pyrimidin-4-yl)amino)-4,4-dimethylpentanoic acid]
[1]; [3]
  IC50: < 0.3 µM
[2]; [5]
  EC99: < 0.3 µM
[2]; [6]
  EC50: < 0.3 µM

## CC(C)(C)C(CCO)Nc1nc(-c2c[nH]c3ncc(F)cc23)ncc1F (racemic) [Compound 45, (+/−)-3-((5-fluoro-2-(5-fluoro-1H-pyrrolo[2,3-b]pyridin-3-yl)pyrimidin-4-yl)amino)-4,4-dimethylpentan-1-ol]
[1]; [3]
  IC50: 0.3 to 3.3 µM
[2]; [5]
  EC99: > 3.3 µM
[2]; [6]
  EC50: < 0.3 µM

## CC(C)(C)[C@@H](CC(=O)O)Nc1nc(-c2c[nH]c3ncc(F)cc23)ncc1F [Compound 2, (R)-3-((5-fluoro-2-(5-fluoro-1H-pyrrolo[2,3-b]pyridin-3-yl)pyrimidin-4-yl)amino)-4,4-dimethylpentanoic acid]
[1]; [3]
  IC50: < 0.3 µM
[1]; [4]
  IC50: 0.004 µM
[2]; [5]
  EC99: < 0.3 µM
[2]; [6]
  EC50: < 0.3 µM
[2]; [7]
  EC50: 0.009 µM
[2]; exemplary data, bDNA
  EC99: 0.0063 µM
Influenza virus
  Percent Survival: 100%
  Percent Weight Loss (Day 8): 14%
  WBP (Penh; Day 6): 2.03

## CC(C)(C)NS(=O)(=O)C[C@@H](Nc1nc(-c2c[nH]c3ncc(F)cc23)ncc1F)C(C)(C)C [Compound 40]
[1]; [3]
  IC50: < 0.3 µM
[2]; [5]
  EC99: 0.3 to 3.3 µM
[2]; [6]
  EC50: < 0.3 µM
